Values belong to the compound of their own block, whether it stands above or below them.
How the values were obtained:
[1] = test system: bovine α-chymotrypsin; design: method as in PMID 15746161; conditions: determined previously in the authors' laboratory; cited from earlier work
[2] = test system: bovine β-trypsin; conditions: cited from earlier work
[3] = molecular target: human 20S proteasome, caspase-like (C-L) activity (Homo sapiens, UniProt P28072); assay: C-L activity of SDS-activated human 20S proteasome (Z-LLE-AMC); conditions: read-out: C-like Human 20S IC50; SDS-activated human 20S, pH 8.1, 37°C, Z-LLE-AMC 79 µM
Description: An assay buffer was composed of 50 mM Tris-HCl (pH 8.1) and 0.02% (w/v) SDS (exceptionally, T-L activity was measured in Tris buffer without SDS, that may trigger precipitation of substrates containing the guanidino group [21]). […] The SFTI-1 analogues were incubated with 20S proteasome in assay buffer at 37°C for 30 min. Reactions were performed in 96-well black BRAND plates (Germany). The final volume of the solution in each well was 200 µL. […] Proteasomal subsite activities were determined by monitoring the AMC liberation over time with a Fluorostar Omega (BMG Labtech, Germany) using excitation and emission wavelengths of 380 nm and 450 nm, respectively. […] Association constants Ka were measured as described previously [14] and calculated using a two-parameter fit model (using the GraFit software package).

[4] = test system: 20S proteasome; design: method as in PMID 19054805; conditions: cited from earlier work
[5] = test system: 20S proteasome, T-L activity; conditions: cited from earlier work
[6] = test system: 20S proteasome, ChT-L activity; conditions: cited from earlier work
[7] = test system: HCT-116; design: method as in PMID 10805568; conditions: human cancer cells HCT-116; read-out: cytotoxic activity IC50, HCT-116; cited from earlier work
[8] = test system: 20S proteasome, C-L activity; conditions: cited from earlier work
[9] = test system: HL-60; design: method as in PMID 10805568; conditions: human cancer cells HL-60; read-out: cytotoxic activity IC50, HL-60; cited from earlier work

Compound: [Phe^5]SFTI-1
- Ka with bovine α-chymotrypsin [1]: 2e+09 M⁻¹

- IC50 [3]: 58200 nM
Compound: sunflower trypsin inhibitor SFTI-1
- association constant Ka with trypsin [2]: 1.1e+10 M⁻¹
- Ki ([2]; read-out: inhibitory constant Ki, trypsin): 0.5 nM
- inhibition of 20S proteasome [4]: does not cause any inhibition

Compound: C/C=C\NC(=O)[C@H]1NC(=O)[C@H](CC(N)=O)NC(=O)[C@@H](NC(=O)C(=O)[C@@H](C)CC)Cc2ccc(O)c(c2)-c2cccc3c2NC(=O)[C@@]3(O)[C@@H]1O [TMC-95A]
- IC50 ([5]; read-out: IC50 T-L activity of 20S proteasome): 200 nM
- Ki ([5]; read-out: Ki app (apparent Ki constant) T-L): 810 nM
- IC50 ([6]; read-out: IC50 ChT-L activity of 20S proteasome): 5.4 nM
- Ki ([6]; read-out: Ki app (apparent Ki constant) ChT-L): 1.1 nM
- IC50 [7]: 4400 nM
- IC50 ([8]; read-out: IC50 C-L activity of 20S proteasome): 60 nM
- Ki ([8]; read-out: Ki app (apparent Ki constant) C-L): 29 nM
- IC50 [9]: 9800 nM

Reference: publication PMC3934894, “Inhibition of Human and Yeast 20S Proteasome by Analogues of Trypsin Inhibitor SFTI-1” (PLoS ONE, 2014)
